Measured values published in PMC9138545, “Incorporation of Oxidized Phenylalanine Derivatives into Insulin Signaling Relevant Proteins May Link Oxidative Stress to Signaling Conditions Underlying Chronic Insulin Resistance” (Biomedicines, 2022).
Entries after “also recorded” stand apart in the source; their conditions may differ.

Legend:
[1] = tested on: p-IRS-1 in podocytes; experiment: Immunofluorescence of p-IRS-1 in insulin-treated podocytes; assay type: cell-based, human; settings: 400 nmol/l insulin for 10 min
Procedure: (§1) The conditionally immortalized human podocyte cell line (provided by Moin Saleem, University of Bristol, UK) was cultured in RPMI1640 medium (R8756, Sigma Aldrich, Budapest, Hungary) supplemented with 10% heat-inactivated FBS (16170-078, Gibco, Budapest, Hungary), insulin-transferrin-selenium supplement (41400-045, Gibco), 100 U/mL penicillin, 0.1 mg/mL streptomycin (P4333, Sigma), and […] (equimolar to the original p-Tyr content of the medium) para-, meta-, or ortho-Tyr. The cells were grown at 33 °C 5% CO2, and when they reached 40–60% confluency they were transferred to 37 °C to differentiate. Following the thermoswitching, cells were kept on RPMI1640 medium containing 2% FBS, antibiotics, and different tyrosines. Before every treatment, cells were incubated in serum-deprived medium overnight.
(§2) In a 6-well plate, 104 cells were cultured on glass coverslips washed with alcohol and dried under UV light. The podocyte cells were grown in RPMI1640 medium supplemented with 10% heat-inactivated FBS at 33 °C, 5% CO2. When they reached 60% confluence, the medium was changed to RPMI1640 medium containing 2% FBS and 112.05 nM of the different tyrosine isoforms, then the plates were transferred to 37 °C, 5% CO2 to allow the cells to differentiate. The different tyrosine isoforms were added to the maintenance medium. The cells were serum deprived overnight, then incubated with 400 nmol/l insulin for 10 min. After removal of the medium, the coverslips were washed twice with PBS. The cells were fixed at room temperature in 2% paraformaldehyde and 4% sucrose for 8 min, then permeabilized using 0.3% Trion X-100 in 1xPBS for 20 min and blocked in 2.5% BSA for 45 min [45]. The primary antibody was diluted in 1xPBS, and the cells were incubated in it for 60 min in humid conditions. The antibodies we used were mouse anti-WT1 antibody (H-1) (1:100, Santa Cruz Biotechnology, Dallas, TX, USA), chicken anti-vimentin antibody (1:100, Abcam), rabbit anti-glucose transporter GLUT4 antibody (1:100, Abcam, Cambridge, UK), mouse Insulin Receptor Substrate-1 antibody (1:100, Invitrogen, Waltham, MA, USA), and rabbit anti-phospho-Insulin Receptor Substrate-1 (pTyr612) antibody (1:10, Sigma). Coverslips were washed in PBS three times for 5 min in PBS and incubated in the fluorophore-conjugated secondary antibodies anti-goat, anti-chicken, secondary antibody Alexa fluor 647, anti-rabbit Alexa fluor 350, and anti-mouse Alexa Fluor 488 (1:10, Invitrogen) for 60 min. Samples were then washed in PBS three times for 5 min and mounted in Vectashield (Vector Laboratories). Images were taken with a Nikon Eclipse Ti2 microscope.

[2] = tested on: GLUT4 and vimentin in podocytes; experiment: Immunofluorescence of GLUT4 and vimentin in insulin-treated podocytes; assay type: cell-based, human; settings: 400 nmol/l insulin for 10 min
Procedure: as §1, §2

[3] = tested on: 3T3-L1 adipocytes; experiment: Isotope glucose uptake (deoxy-D-glucose 2-[1 2-3H(N)]) in differentiated 3T3-L1 adipocytes; assay type: cell-based, mouse
Procedure: (§3) Early passages of mouse embryo fibroblast (3T3-L1) (ATCC, Manassas, VA, US) were cultured in Dulbecco’s modified Eagle medium (DMEM, Sigma Aldrich, Budapest, Hungary, CAT number: D6046; Invitrogen, Waltham, MA, USA, CAT number: 41966-029) supplemented with 100 U/mL penicillin, 0.1 mg/mL streptomycin (Gibco, Budapest, Hungary, CAT number: 15070-063) and 10% heat-inactivated Fetal Bovine Serum (FBS, Gibco, CAT number: 16170-078), supplemented with 398 nM p-, m-, or o-Tyr (equimolar to the original p-Tyr content of the medium) purchased from Sigma (CAT number: para-Tyr: T8566, m-Tyr: T3629, o-Tyr: 93851). Media contained 25 or 5 mmol/L glucose (experiment dependent) pyruvate and L-glutamine. Cells were grown at 37 °C and 5% CO2. Adipocyte differentiation was achieved by DMEM supplemented with 10% FBS (Gibco, Csertex, Budapest, Hungary, CAT number: 10106-169) (FBS) and a […] insulin (Sigma Aldrich, Budapest, Hungary, CAT number: I 9278), […] isobuthylmethylxanthine (Sigma Aldrich, Budapest, Hungary, CAT number: I 5879), and 250 nmol/L dexamethasone (Sigma Aldrich, Budapest, Hungary, CAT number: 861871) containing cocktail. From day 4 onward, cultures were maintained in DMEM containing 1.5 μg/mL insulin and 10% FBS with a medium change every other day until experimental treatments were started. After 90% of the cell population reached the adipocyte phenotype, prior to all treatments, cells were incubated overnight in serum-deprived medium. Experimental treatment was performed in serum-deprived medium containing 200 or 400 nmol/L insulin, for 5 min.
Initially, cells were kept in glucose-free DMEM (Gibco, Csertex, Budapest, Hungary) for 30 min and then were treated with 2, 20, 200, or 400 nmol/L insulin for 100 min. Concurrently, 1 μCi/mL deoxy-D-glucose 2-[1 2-3H(N)] (3.7 × 104 Bq/mL) (Izotóp Intézet, Budapest, Hungary) was added to the plates for 100 min. After scraping the cells into the medium, they were centrifuged for 5 min at 1000 rpm. We dissolved the sediment in 70 μL of lysis buffer, then glucose uptake was determined by scintillation counting by measuring 30 μL of the sample, using a Beckman LS 5000 TD counter, in counts per minute (CPM), for five minutes each, with average activity was used as the outcome. Following freezing overnight at −70 °C, protein concentration was measured with a Hitachi spectrophotometer. Results were normalized for protein content.

[4] = tested on: 3T3-L1 adipocytes; experiment: HPLC of non-protein-bound intracellular tyrosines; assay type: cell-based, mouse; settings: 5 or 25 mmol/L glucose, with or without 400 nmol/L insulin
Procedure: as §3
To measure the total intracellular non-protein-bound tyrosine concentration, prior to the freezing of samples overnight at −70 °C to achieve cell lysis, 200 μL distilled water was added to each. After melting up, samples were centrifuged for 15 min at 15,000 rpm. A total of 200 µL of the supernatant was mixed with 200 µL of 60% trichloroacetic acid. After 30 min incubation on ice, samples were centrifuged again at 15,000 rpm for 15 min. Then, the supernatant was filtered and was diluted 5-fold and then 160 µL distilled water was added to 40 µL of filtrate, followed by the injection of the mixture onto the HPLC column.
The amounts of p-, o-, m-Tyr and Phe in the samples were determined by measuring their autofluorescence. Thus, no derivatization or staining was needed. Samples were measured on a Shimadzu Class 10 HPLC system equipped with an RF-10 AXL fluorescent detector (Shimadzu USA Manufacturing Inc., Canby, OR, USA). The mobile phase consisted of 1% sodium acetate and 1% acetic acid dissolved in water. The separation took place on a LiChroCHART 250-4 column (Merck KGaA, Darmstadt 64271, Germany) in an isocratic run. Wavelengths of 275 nm for excitation and 305 nm for emission were used to assess p-, o- and m-Tyr, while Phe was detected at 258 nm excitation and 288 nm emission wavelengths. Determination of the area under the curve (AUC) plus external standard calibration was used to calculate the precise concentrations of the amino acids.

[5] = tested on: IR kinase (989–1382, fused to GST); experiment: IR kinase phosphorylation assay, capillary electrophoresis; assay type: biochemical; settings: 200 μM peptide, 875 nM IR kinase, 1 mM ATP, 5 mM MgCl2, pH 7.5
Procedure: Enzymatically active IR kinase (989–1382, fused to GST and produced in SF9 cells) was ordered from SinoBiological (catalog number 11081-H20B1). The stock solution was aliquoted and frozen separately to preserve activity. Prior to comparative measurements, the activity of recombinant IR kinase was tested on internal control peptides and found to be suitable for kinase assays.
The kinase assay mixture contained 200 μM peptide (GRKGSGDYMPMSPKV) and 875 nM IR kinase in kinase buffer (20 mM potassium phosphate (monobasic), 15 mM sodium phosphate (dibasic), 103 mM NaCl, 5 mM MgCl2, 5% glycerol, 0.05% Igepal; pH 7.5). The reaction was initialized by addition of 1 mM ATP. The phosphatase reaction mixture contained 80 μM peptide (GRKGSGD(phosphoY)MPMSPKV) in buffer (50 mM TRIS, 150 mM NaCl, 1 mM EDTA and 2 mM DTT; pH 7.4). The reaction was initialized by addition of 25 nM PTP1B enzyme. Equal aliquots of the kinase or the phosphatase reaction mixture were subjected to capillary electrophoresis analysis at the indicated time points after the start the reaction.
Background electrolyte (BGE) components phosphoric acid and triethylamine were purchased from Sigma (St. Louis, MO, USA) and from Merck GmbH (Darmstadt, Germany), respectively. Capillary electrophoresis was performed with an Agilent Capillary Electrophoresis 3DCE system (Agilent Technologies, Waldbronn, Germany) applying DB-WAX coated capillary having a 33.5 cm total and 25 cm effective length with 50 μm I.D. (Agilent Technologies, Santa Clara, CA, USA). On-line absorption at 200 nm was monitored by DAD UV-Vis detector. The capillary was thermostated at 25 °C. Before measurements, the capillary was rinsed subsequently with distilled water for 15 min and between measurements with BGE (100 mM trimethylamine-phosphate buffer; pH 2.5) for 3 min. Samples were injected by 5 × 10^3 Pa pressure for 6 s. Runs were performed in the positive-polarity mode with 20 kV.

[6] = tested on: IRS-1 (Tyr612); experiment: Western blot, activating phosphorylation of IRS-1 (Tyr612); assay type: cell-based; settings: 400 nmol/L insulin; adipocytes, HEK cells, podocytes, macrophages; n = 4–8
Procedure: as §3, §1
(§4) HEK-293 immortalized cell line (ATCC, Manassas, VA, USA) of epithelial morphology and the J774A.1 mouse BALB/C monocyte-macrophage cell lines (91051511-1VL, Sigma Aldrich, Budapest, Hungary) were cultured in Petri dishes with a medium composed of Dulbecco’s modified Eagle’s medium (DMEM, Sigma Aldrich, Budapest, Hungary, CAT number: D6046, Invitrogen, CAT number: 41966-029), with a 10% heat-inactivated FBS supplementation (16170-078, Gibco), insulin-transferrin-selenium supplement (41400-045, Gibco, Budapest, Hungary,), 100 U/mL penicillin and 0.1 mg/mL streptomycin (P4333, Sigma) and 398 nM para (5 and 25 mmol/L), meta-, or ortho-Tyr (T8566, T3629, 93851, Sigma). Before treatment, cells were incubated in serum-deprived medium overnight as well. […]
(§5) The samples of lysates were vortexed and centrifuged (10 min, 13,000 rpm, at 4 °C). Protein content of the samples was determined by the Lowry method using bovine serum albumin as a standard. […]

[7] = tested on: Akt (Ser473); experiment: Western blot, activating phosphorylation of Akt (Ser473); assay type: cell-based; settings: 400 nmol/L insulin; adipocytes, HEK cells, podocytes, macrophages; n = 4–8
Procedure: as §3, §1, §4, §5

With `N[C@@H](Cc1ccc(O)cc1)C(=O)O` [p-Tyr, para-tyrosine, reference compound] the “membrane translocation of IRS-1 / p-IRS-1” value [1] was “clearly demonstrated; also recorded: located in the membrane”, the p-IRS-1 intensity ([1]; vs. p-Tyr) was “more intense” and the GLUT4 membrane localization [2] was “characteristic localization of GLUT-4 positivity; also recorded: GLUT4 aggregates are transported to the membrane”. The “reversal of inhibitory effect of o- and m-Tyr on glucose uptake” value ([3]; increasing p-Tyr concentrations, with or without 400 nmol/L insulin, n = 10) was “ameliorated by increasing concentrations of p-Tyr” and the “cellular uptake of amino acids (non-protein-bound intracellular content)” value [4] was “continuous uptake of amino acids which was independent of glucose concentration (5 or 25 mmol/L) and the presence of insulin”.

“GRKGSGDF(2-hydroxy)MPMSPKV [o-tyrosine containing peptides, unphosphorylated ortho-tyrosine IRS-1 YXXM motif peptide]” was tested, and the “phosphorylation by IR kinase” value [5] was “neither o- nor m-tyrosine containing peptides are substrates for the IR kinase” and the “phosphorylation by IR kinase” value ([5]; listed as ortho-tyrosine peptides) was “very poor substrates”.

“GRKGSGDF(3-hydroxy)MPMSPKV [m-tyrosine containing peptides, unphosphorylated meta-tyrosine IRS-1 YXXM motif peptide]” was tested, and the “phosphorylation by IR kinase” value [5] was “neither o- nor m-tyrosine containing peptides are substrates for the IR kinase” and the “phosphorylation by IR kinase” value ([5]; listed as meta-tyrosine peptides) was “very poor substrates”.

With “GRKGSGDF(4-hydroxy)MPMSPKV [p-Tyr containing “natural” peptide, unphosphorylated para-tyrosine IRS-1 YXXM motif peptide]” the “phosphorylation by IR kinase” value [5] was “efficiently phosphorylated”.

“insulin: insulin (Sigma Aldrich, I 9278)” was tested, and the “insulin-induced glucose uptake, time dependence” value ([3]; 200 nmol/L insulin, cells grown 1, 2, 3, 4, 5 or 12 days with p-, m- or o-Tyr, n = 5–8) was “approximately two-fold”, the “insulin-induced glucose uptake, 5 mmol/L glucose” value ([3]; 2, 20, 200, 400 nmol/L insulin, 5 mmol/L glucose, medium with p-, m- or o-Tyr) was “marked increase in glucose uptake in 5 mmol/L glucose” and the “insulin-induced IRS-1 phosphorylation” value [6] was “approximately two-fold”. The “insulin-induced Akt phosphorylation” value [7] was “approximately two-fold”.
